Assay results: ChEMBL document CHEMBL1150971, “Crystal structures of catalytic subunit of cAMP-dependent protein kinase in complex with isoquinolinesulfonyl protein kinase inhibitors H7, H8, and H89. Structural implications for selectivity” (J Biol Chem, 1996)

Experiments:
[1] = Inhibitory constant against CK1; set-up: species or system Rattus norvegicus
[2] = molecular target: cAMP-dependent protein kinase alpha-catalytic subunit (Oryctolagus cuniculus, UniProt Q95J97); assay: Inhibitory constant against cAPK (PKA)
[3] = molecular target: Casein kinase II (Homo sapiens, UniProt P19784+P67870+P68400); assay: Inhibitory constant against CK2; format: protein-complex assay, Oryctolagus cuniculus
[4] = molecular target: Myosin light chain kinase, smooth muscle (Gallus gallus, UniProt P11799); assay: Inhibitory constant against MLCK
[5] = Inhibitory constant against cGPK (PKG); set-up: species or system Sus scrofa
[6] = molecular target: Protein kinase C (PKC); assay: Inhibitory constant against PKC; format: protein assay, Oryctolagus cuniculus

Myosin light chain kinase, smooth muscle, sequence (P11799 whole entry): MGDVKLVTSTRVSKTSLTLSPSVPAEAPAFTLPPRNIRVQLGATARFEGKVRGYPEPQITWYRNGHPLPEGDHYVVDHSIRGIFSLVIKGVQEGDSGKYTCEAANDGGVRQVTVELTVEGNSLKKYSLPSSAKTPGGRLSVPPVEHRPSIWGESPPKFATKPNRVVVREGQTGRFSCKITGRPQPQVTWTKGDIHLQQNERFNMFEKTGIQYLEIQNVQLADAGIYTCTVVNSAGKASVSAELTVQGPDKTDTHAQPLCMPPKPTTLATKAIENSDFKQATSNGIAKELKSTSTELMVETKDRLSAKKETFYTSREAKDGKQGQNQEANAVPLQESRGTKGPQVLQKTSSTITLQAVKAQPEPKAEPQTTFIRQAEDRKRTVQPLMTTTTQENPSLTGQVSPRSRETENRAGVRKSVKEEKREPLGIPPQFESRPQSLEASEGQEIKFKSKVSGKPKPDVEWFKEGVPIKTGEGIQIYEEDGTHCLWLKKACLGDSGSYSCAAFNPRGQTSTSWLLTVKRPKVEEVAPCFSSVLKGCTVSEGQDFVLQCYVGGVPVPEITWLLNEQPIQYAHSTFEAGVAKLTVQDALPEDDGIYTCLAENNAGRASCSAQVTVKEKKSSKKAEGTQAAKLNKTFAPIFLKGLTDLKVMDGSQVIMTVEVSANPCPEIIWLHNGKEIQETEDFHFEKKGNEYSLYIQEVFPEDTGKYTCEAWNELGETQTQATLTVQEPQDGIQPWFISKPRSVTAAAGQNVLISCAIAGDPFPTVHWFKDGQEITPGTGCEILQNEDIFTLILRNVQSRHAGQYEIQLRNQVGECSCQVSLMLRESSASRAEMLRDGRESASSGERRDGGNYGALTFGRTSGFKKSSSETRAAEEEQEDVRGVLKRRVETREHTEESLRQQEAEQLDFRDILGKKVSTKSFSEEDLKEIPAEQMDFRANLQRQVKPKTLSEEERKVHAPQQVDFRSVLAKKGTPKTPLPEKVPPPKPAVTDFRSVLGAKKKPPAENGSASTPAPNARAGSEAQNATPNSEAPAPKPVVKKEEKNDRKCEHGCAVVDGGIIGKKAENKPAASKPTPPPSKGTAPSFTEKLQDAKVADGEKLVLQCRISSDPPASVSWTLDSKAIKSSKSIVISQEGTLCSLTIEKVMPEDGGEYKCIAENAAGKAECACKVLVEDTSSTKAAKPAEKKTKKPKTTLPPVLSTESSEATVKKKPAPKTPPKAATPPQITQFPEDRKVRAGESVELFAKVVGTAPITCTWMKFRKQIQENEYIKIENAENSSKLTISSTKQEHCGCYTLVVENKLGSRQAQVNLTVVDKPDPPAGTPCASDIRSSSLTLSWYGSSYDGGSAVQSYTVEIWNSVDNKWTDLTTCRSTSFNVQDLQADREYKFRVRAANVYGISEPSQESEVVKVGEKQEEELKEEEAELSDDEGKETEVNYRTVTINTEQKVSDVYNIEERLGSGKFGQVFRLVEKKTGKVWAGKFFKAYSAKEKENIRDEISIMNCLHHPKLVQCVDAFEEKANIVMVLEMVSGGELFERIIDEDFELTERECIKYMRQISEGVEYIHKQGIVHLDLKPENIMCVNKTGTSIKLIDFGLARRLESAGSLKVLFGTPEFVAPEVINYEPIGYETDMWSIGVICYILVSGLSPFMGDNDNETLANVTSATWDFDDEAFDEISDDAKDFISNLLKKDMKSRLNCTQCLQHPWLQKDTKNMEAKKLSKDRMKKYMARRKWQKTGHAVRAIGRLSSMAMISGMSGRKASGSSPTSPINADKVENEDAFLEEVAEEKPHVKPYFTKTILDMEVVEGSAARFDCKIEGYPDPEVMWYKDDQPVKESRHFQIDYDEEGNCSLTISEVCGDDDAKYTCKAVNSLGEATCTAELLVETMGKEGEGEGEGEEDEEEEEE
Casein kinase II, sequence (P67870 whole entry): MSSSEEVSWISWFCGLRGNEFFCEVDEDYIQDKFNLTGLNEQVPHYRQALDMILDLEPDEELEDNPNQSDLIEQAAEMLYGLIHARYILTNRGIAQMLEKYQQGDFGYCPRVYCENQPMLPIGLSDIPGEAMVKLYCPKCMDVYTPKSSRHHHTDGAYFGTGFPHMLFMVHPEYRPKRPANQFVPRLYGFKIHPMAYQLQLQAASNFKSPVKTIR
Casein kinase II, sequence (P68400 whole entry): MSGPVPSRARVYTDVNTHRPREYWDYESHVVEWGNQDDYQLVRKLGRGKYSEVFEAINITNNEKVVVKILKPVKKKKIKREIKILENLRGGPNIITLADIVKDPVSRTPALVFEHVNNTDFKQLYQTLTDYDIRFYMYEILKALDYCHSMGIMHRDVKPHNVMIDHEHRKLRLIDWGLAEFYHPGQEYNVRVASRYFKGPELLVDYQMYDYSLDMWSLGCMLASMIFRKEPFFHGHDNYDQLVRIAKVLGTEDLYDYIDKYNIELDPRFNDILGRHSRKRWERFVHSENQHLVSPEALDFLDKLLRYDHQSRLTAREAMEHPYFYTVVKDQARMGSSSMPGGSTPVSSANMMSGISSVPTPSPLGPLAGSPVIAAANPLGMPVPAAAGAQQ
Casein kinase II, sequence (P19784 whole entry): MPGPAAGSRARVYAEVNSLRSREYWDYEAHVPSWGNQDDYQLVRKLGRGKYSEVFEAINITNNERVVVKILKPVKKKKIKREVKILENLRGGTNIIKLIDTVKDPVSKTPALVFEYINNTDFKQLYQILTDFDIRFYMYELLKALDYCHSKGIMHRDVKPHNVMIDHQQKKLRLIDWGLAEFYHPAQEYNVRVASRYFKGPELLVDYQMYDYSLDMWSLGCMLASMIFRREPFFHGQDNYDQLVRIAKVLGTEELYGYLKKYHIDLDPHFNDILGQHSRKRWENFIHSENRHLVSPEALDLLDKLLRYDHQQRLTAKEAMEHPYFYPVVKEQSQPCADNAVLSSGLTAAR

| Ki [4] [µM] | SMILES | Ki [1] [µM] | Ki [2] [µM] | Ki [3] [µM] | Ki [5] [µM] | Ki [6] [µM] |
| --- | --- | --- | --- | --- | --- | --- |
| 97 | C[C@H]1CNCCN1S(=O)(=O)c1cccc2cnccc12 | 100 |  | 780 | 5.8 | 6 |
| 28.3 | O=S(=O)(NCCNC/C=C/c1ccc(Br)cc1)c1cccc2cnccc12 |  |  |  |  |  |

| SMILES | Ki [4] [µM] | Ki [1] [µM] | Ki [2] [µM] | Ki [3] [µM] | Ki [5] [µM] | Ki [6] [µM] |
| --- | --- | --- | --- | --- | --- | --- |
| CNCCNS(=O)(=O)c1cccc2cnccc12 | 68 | 133 | 1.2 | 950 | 0.48 | 15 |
